{"source": "patent US4909940A", "about": "“Extraction of process chemicals from labile biological mixtures with organic alcohols or with halogenated hydrocarbons” (priority 1987, dated 1990)", "key": {"[1]": {"assay": "Extraction of process chemicals from saline: TRITON X114", "details": "1% TRITON X114 in saline; 5% extractant"}, "[2]": {"assay": "Extraction of process chemicals from saline: TWEEN 80", "details": "1% TWEEN 80 in saline; 5% extractant"}, "[3]": {"assay": "Extraction of process chemicals from saline: TRITON X45", "details": "1% TRITON X45 in saline; 5% extractant"}, "[4]": {"tested_on": "AHF", "assay": "Recovery of AHF procoagulant activity following extraction", "assay_type": "biochemical", "details": "for AHF % Recovery / AHF Activity After: 5% extractant"}, "[5]": {"assay": "Extraction of process chemicals from plasma: TRITON X114", "details": "1% TRITON X114 in plasma; 5% extractant", "source_text": "(§1) The results are in general agreement with those observed extracting from saline."}, "[6]": {"assay": "Extraction of process chemicals from plasma: TWEEN 80", "details": "1% TWEEN 80 in plasma; 5% extractant", "source_text": "as §1"}, "[7]": {"assay": "Extraction of process chemicals from plasma: TNBP", "details": "2% TNBP in plasma; 5% extractant", "source_text": "as §1"}, "[8]": {"assay": "Extraction of process chemicals from plasma: TRITON X100", "details": "1% TRITON X100 in plasma; 5% extractant", "source_text": "as §1"}, "[9]": {"assay": "Extraction of process chemicals from plasma: TRITON X45", "details": "1% TRITON X45 in plasma; 5% extractant", "source_text": "as §1"}, "[10]": {"assay": "Extraction of process chemicals from saline: TNBP", "details": "1% TNBP in saline; 5% extractant"}, "[11]": {"assay": "Extraction of process chemicals from saline: TRITON X100", "details": "1% TRITON X100 in saline; 5% extractant"}, "[12]": {"assay": "Extraction of process chemicals from saline: Nonoxynol", "details": "1% Nonoxynol in saline; 5% extractant"}, "[13]": {"tested_on": "AHF", "assay": "AHF retention after extraction of AHF concentrate with alcohols", "assay_type": "biochemical, human", "details": "0.3% TNBP and 1% TRITON X-45; 10% (w/v) alcohol, 30 minutes, ambient"}, "[14]": {"assay": "Removal of TRITON X-45 from AHF concentrate with alcohols", "details": "0.3% TNBP and 1% TRITON X-45; 10% (w/v) alcohol, 30 minutes, ambient"}, "[15]": {"details": "water"}, "[16]": {"tested_on": "AHF", "assay": "AHF retention after extraction of AHF concentrate with halogenated hydrocarbons", "assay_type": "biochemical, human", "details": "5% (w/v) halogenated hydrocarbon, 30 minutes, ambient", "protocol": "(§2) An AHF concentrate prepared from human plasma was treated with 0.3% TNBP and either 1% \"TRITON X-45\" or 1% \"TWEEN 80\" to inactivate virus. Following treatment, the solution was extracted one time with 5% (w/v) of a halogenated hydrocarbon by mixing for a period of 30 minutes at ambient temperature. The quantity of residual AHF, TNBP and detergent present in the aqueous solution was measured and compared with the unextracted control."}, "[17]": {"assay": "Removal of TNBP from AHF concentrate with halogenated hydrocarbons", "details": "0.3% TNBP; 5% (w/v) halogenated hydrocarbon, 30 minutes, ambient", "protocol": "as §2"}, "[18]": {"assay": "Removal of TRITON X-45 from AHF concentrate with halogenated hydrocarbons", "details": "1% TRITON X-45; 5% (w/v) halogenated hydrocarbon, 30 minutes, ambient", "protocol": "as §2"}, "[19]": {"assay": "Removal of TWEEN 80 from AHF concentrate with halogenated hydrocarbons", "details": "1% TWEEN 80; 5% (w/v) halogenated hydrocarbon, 30 minutes, ambient", "protocol": "as §2"}, "[20]": {"tested_on": "Vesicular stomatitis virus", "assay": "microbe, parasite or virus in culture", "assay_type": "cell-based"}, "[21]": {"assay": "Aqueous solubility of alcohols", "details": "water"}}, "note": "Where two headings read alike, the source gives them in different places.", "data": [{"compound": "CCCCCO", "note": "[1-pentanol]", "values": [{"measurement": "Percent Extraction", "setting": "[1]", "result": 91, "unit": "%"}, {"measurement": "Percent Extraction", "setting": "[2]", "result": "28-42%"}, {"measurement": "Percent Extraction", "setting": "[3]", "result": 97, "unit": "%"}, {"measurement": "AHF recovery", "setting": "[4]; AHF concentrate or plasma", "result": "approximately 1%"}, {"measurement": "AHF % Recovery", "setting": "[4]; AHF concentrate", "result": 1, "unit": "%"}, {"measurement": "AHF Activity After", "setting": "[4]; AHF concentrate", "result": 0.02, "unit": "units/mL"}, {"measurement": "AHF % Recovery", "setting": "[4]; plasma", "result": 1, "unit": "%"}, {"measurement": "AHF Activity After", "setting": "[4]; plasma", "result": 0.01, "unit": "units/mL"}, {"measurement": "Percent Extraction", "setting": "[5]", "result": 75, "unit": "%"}, {"measurement": "Percent Extraction", "setting": "[6]", "result": 7, "unit": "%"}, {"measurement": "Percent Extraction", "setting": "[7]", "result": 98, "unit": "%"}, {"measurement": "Percent Extraction", "setting": "[8]", "result": 65, "unit": "%"}, {"measurement": "Percent Extraction", "setting": "[9]", "result": 80, "unit": "%"}, {"measurement": "Percent Extraction", "setting": "[10]", "result": 99, "unit": "%"}, {"measurement": "Percent Extraction", "setting": "[11]", "result": 92, "unit": "%"}, {"measurement": "Percent Extraction", "setting": "[12]", "result": 92, "unit": "%"}]}, {"compound": "CCCCCCO", "note": "[hexanol]", "values": [{"measurement": "AHF (% Retention)", "setting": "[13]", "result": 63, "unit": "%"}, {"measurement": "TRITON X-45 (% Removal)", "setting": "[14]", "result": 100, "unit": "%"}]}, {"compound": "CCCCCCCO", "note": "[heptanol]", "values": [{"measurement": "AHF (% Retention)", "setting": "[13]", "result": 98, "unit": "%"}, {"measurement": "Aqueous Solubility", "setting": "[15]", "result": 0.2, "unit": "g %"}, {"measurement": "TRITON X-45 (% Removal)", "setting": "[14]", "result": 100, "unit": "%"}]}, {"compound": "FC(F)OC(F)(F)C(F)Cl", "note": "(centres unmarked) [Ethrane, 2-chloro-1,1,2-trifluoroethyl difluoromethyl ether]", "values": [{"measurement": "% Retention AHF", "setting": "[16]", "result": 100, "unit": "%"}, {"measurement": "Percent Removal TNBP", "setting": "[17]", "result": 99, "unit": "%"}, {"measurement": "Percent Removal TRITON X-45", "setting": "[18]", "result": 99, "unit": "%"}]}, {"compound": "FC(F)(F)C(F)(F)C(F)(F)C(F)(F)N(C(F)(F)C(F)(F)C(F)(F)C(F)(F)F)C(F)(F)C(F)(F)C(F)(F)C(F)(F)F", "note": "[Perfluorotributyl amine]", "values": [{"measurement": "% Retention AHF", "setting": "[16]", "result": 112, "unit": "%"}, {"measurement": "Percent Removal TNBP", "setting": "[17]", "result": 31, "unit": "%"}, {"measurement": "Percent Removal TWEEN 80", "setting": "[19]", "result": 3, "unit": "%"}, {"measurement": "Percent Removal TRITON X-45", "setting": "[18]", "result": 0, "unit": "%"}]}, {"compound": "CCCCN1C(=O)C(=CC=CC=C2Oc3ccccc3N2CCCS(=O)(=O)O)C(=O)N(CCCC)C1=S", "note": "[merocyanine 540]", "values": [{"measurement": "Final Virus Titer", "setting": "[20]", "result": "< -0.5"}, {"measurement": "Virus titer, Control (no light)", "setting": "[20]", "result": 3.7}, {"measurement": "log reduction at 40 µg/mL", "setting": "[20]; Vesicular stomatitis virus, 1 h, read-out: Total Virus Kill", "result": "> 4.2"}]}, {"compound": "CCCCCCCCCCCO", "note": "[undecanol]", "values": [{"measurement": "AHF (% Retention)", "setting": "[13]", "result": 94, "unit": "%"}, {"measurement": "Aqueous Solubility", "setting": "[21]", "result": "< 0.05", "unit": "g %"}, {"measurement": "TRITON X-45 (% Removal)", "setting": "[14]", "result": 100, "unit": "%"}]}, {"compound": "CCCCCCCCCCO", "note": "[1-decanol]", "values": [{"measurement": "AHF (% Retention)", "setting": "[13]", "result": 100, "unit": "%"}, {"measurement": "Aqueous Solubility", "setting": "[21]", "result": "< 0.05", "unit": "g %"}, {"measurement": "TRITON X-45 (% Removal)", "setting": "[14]", "result": 100, "unit": "%"}]}, {"compound": "FC1(F)C(F)(F)C(F)(F)C2(F)C(F)(F)C(F)(F)C(F)(F)C(F)(F)C2(F)C1(F)F", "note": "(centres unmarked) [Perfluorodecalin]", "values": [{"measurement": "% Retention AHF", "setting": "[16]", "result": 107, "unit": "%"}, {"measurement": "Percent Removal TNBP", "setting": "[17]", "result": 14, "unit": "%"}, {"measurement": "Percent Removal TWEEN 80", "setting": "[19]", "result": 0, "unit": "%"}, {"measurement": "Percent Removal TRITON X-45", "setting": "[18]", "result": 0, "unit": "%"}]}]}
